pEC50: −log10 of the molar value. Where two headings read alike, the source gives them in different places.

In data set [1] the test system is human foreskin fibroblasts (HFFs). Kind of data set: Neutral red dye uptake cytotoxicity assay in HFFs. The class given is cell-based. The settings on record: 35 nM. The procedure: The neutral red (NR) cytotoxicity assay was performed as described previously (Rowe et al.) and is based on the method of (Babich et al., 2002).
To determine the toxicity of L-BHDU in culture, a neutral red dye uptake assay was performed. The amount of dye absorbed is directly proportional to cell number and membrane integrity (Repetto et al., 2008). Primary human foreskin fibroblasts (HFFs) were treated with either 35 nM staurosporine to induce apoptosis, DMSO diluent alone, or 0.1 to 200 μM L-BHDU, refreshed daily. The uptake of neutral red dye was evaluated at 0, 24, 48, and 72 h post treatment. Absorbance values from 6 replicates at each dose were averaged and plotted against treatment time (FIG. 1A). […] In the cultures treated with 200 μM L-BHDU or DMSO at an equivalent diluent concentration, cell viability declined between 48-72 h. […] This substantiates previous reports that L-BHDU caused no cell growth arrest up to 200 μM in HEL 299 cells (human embryonic lung) (Li et al., 2000).

Data set [2] deals with VZV-BAC-Luc. The note with it: 36 mg/kg/day subcutaneously from osmotic pumps; cited from earlier work.
Data set [3] deals with VZV-BAC-Luc. Format: cell-based, Varicella-zoster virus. The note with it: HFF at 48 hpi, read-out: EC50 in HFF, prodrug study.
Data set [4] concerns VZV-BAC-Luc. The data set can be described thus: VZV-BAC-Luc dose-response in human skin organ culture (SOC). The note with it: read-out: EC50 in skin organ culture (SOC), skin explants, Day 6 (6 dpi).
For data set [5] the following is noted: herpes zoster patients, 125 mg/day; cited from earlier work.
In data set [6] the test system is VZV. The note with it: Oliver et al., 2008; cited from earlier work.
The subject of data set [7] is VZV-BAC-Luc. The class given is in vivo, Varicella-zoster virus. The note with it: 3 mg/mL in drinking water.
For data set [8] the following is noted: 3 mg/mL in drinking water.

Consider `CN[C@@H]1C[C@H]2O[C@@](C)([C@@H]1OC)n1c3ccccc3c3c4c(c5c6ccccc6n2c5c31)C(=O)NC4` [staurosporine, reference compound], for which the “cell viability, positive control for cell death” value in data set [1] is recorded as “no viable cells were detected”.
Turning to `O=C(O)CP(=O)(O)O` [phosphonoacetic acid (PAA), phosphonoacetic acid], the “effect on VZV growth in SCID-Hu model (Rowe et al.)” value in data set [2] is “significantly reduced VZV growth”.
By pEC50 is commonly meant −log10 of the EC50, conventionally taken in molar units. With `CC(C)C(N)C(=O)OCC1OCC(n2cc(C=CBr)c(=O)[nH]c2=O)O1` (stereo not shown) [valyl derivative], the pEC50 in data set [3] is 7.42; in data set [4] it was 7.30.
For `O=c1[nH]c(=O)n([C@H]2C[C@H](O)[C@@H](CO)O2)cc1/C=C/Br` [brivudin, (E)-5-(2-bromovinyl)-2′-deoxyuridine], in data set [5], the “Cmax (plasma)” value was 1700 ng/mL.
Turning to `CC(C)[C@H](N)C(=O)OCCOCn1cnc2c(=O)[nH]c(N)nc21` [valaciclovir, reference compound], the “effect on VZV replication in SCID-Hu mice” value in data set [6] is “little to no effect”. Also, the entries for the “antiviral effect in SCID-Hu mice” value in data set [7] and in data set [7] (listed as VACV) were “no antiviral effect” and “not effective”, respectively. For the same molecule, the “average VZV growth rate” value in data set [7] (n=5) is recorded as 0.62±0.05 log10 photons/s/day. Besides, the “loss of body weight” value in data set [8] was over 20%.

Values taken from US8492362B1, “5-(E)-Bromovinyl uracil analogues and related pyrimidine nucleosides as anti-varicella zoster virus agents and methods of use” (priority 2011, dated 2013).
